The values below are quoted from earlier work in patent US8119691B2, “Method for treating airway hyper-responsiveness with lipoxin analogs” (National Institutes of Health (NIH), priority 2001, dated 2012).

The test system of one data set is airway smooth muscle. The note with it: in vitro (ref. 23); cited from earlier work.
Another data set relates to eosinophil. To be noted: cited from earlier work.
The next data set relates to human asthmatics. The note with it: native LXA4 given to human asthmatics (ref. 22); cited from earlier work.
Data set [1] has as its target T1, recombinant cysLT1 receptors (Homo sapiens, UniProt Q9Y271).
T1 construct: host or cells: Chinese hamster ovary cells (recombinant expression)
T1 sequence (Q9Y271 1-337): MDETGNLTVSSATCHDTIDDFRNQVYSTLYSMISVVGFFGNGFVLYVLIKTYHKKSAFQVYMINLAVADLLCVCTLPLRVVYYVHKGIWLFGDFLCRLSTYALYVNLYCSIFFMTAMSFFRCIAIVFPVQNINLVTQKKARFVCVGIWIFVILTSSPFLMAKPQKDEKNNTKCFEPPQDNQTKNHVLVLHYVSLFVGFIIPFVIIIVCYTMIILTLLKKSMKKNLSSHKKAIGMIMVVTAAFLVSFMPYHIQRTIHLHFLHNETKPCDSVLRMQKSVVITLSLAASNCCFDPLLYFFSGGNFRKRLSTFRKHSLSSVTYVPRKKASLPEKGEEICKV
To be noted: CHO cells, in vitro (ref. 12); cited from earlier work.

As for `CCCCC[C@H](O)/C=C/C=C\C=C\C=C\[C@@H](O)[C@@H](O)CCCC(=O)O` [LXA4, Lipoxin A4], the “LTD4-initiated constriction of airway smooth muscle” value in the data set on airway smooth muscle was “blocks LTD4-initiated constriction of airway smooth muscle in vitro”. The eosinophil chemotaxis entry in the data set on eosinophil is given as “directly inhibits eosinophil chemotaxis”. The LTC4-stimulated airway hyper-responsiveness result with human asthmatics is listed as “inhibits LTC4-stimulated airway hyper-responsiveness”. Besides, in data set [1], the “competition for binding at LTD4 recognition sites and recombinant cysLT1 receptors” value was “compete for binding with high affinity at LTD4 recognition sites”.
